Test results: ChEMBL document CHEMBL6096661, “Synthesis, biological evaluation and mechanism study of a novel indole-pyridine chalcone derivative as antiproliferative agent against tumor cells through dual targeting tubulin and HK2” (Eur J Med Chem, 2025)
Active and inactive are the calls of the source. The calls are words filed in the database; no cut-off is given here.

What was measured:
[1] = test system: MDA-MB-231; assay: Antiproliferative activity against human MDA-MB-231 cells assessed as reduction in cell proliferation incubated for 48 hrs by CCK-8 assay; format: functional, cell-based; settings: MDA-MB-231, 48 h
[2] = biological target: T1, Tubulin (Homo sapiens) (UniProt P68371+Q9H4B7+P0DPH7+P68366+Q13509+Q71U36+P04350+Q3ZCM7+P07437+P68363+Q9BQE3+Q6PEY2+Q13885+Q9BVA1+Q9BUF5); assay: Disruption of microtubule network in human MDA-MB-231 cells assessed as reduced microtubule network at 1 uM incubated for 24 hrs by DAPI staining based fluorescence microscopic analysis; format: cell-based
[3] = biological target: T1, Tubulin (Homo sapiens); assay: Disruption of microtubule network in human MDA-MB-231 cells assessed as disorganized microtubule network at 1 uM incubated for 24 hrs by DAPI staining based fluorescence microscopic analysis; format: cell-based
[4] = biological target: T1, Tubulin (Homo sapiens); assay: Disruption of microtubule network in human MDA-MB-231 cells assessed as atrophy fiber structure at 1 uM incubated for 24 hrs by DAPI staining based fluorescence microscopic analysis; format: cell-based
[5] = biological target: T1, Tubulin (Homo sapiens); assay: Disruption of microtubule network in human MDA-MB-231 cells assessed as punctate fiber structure at 1 uM incubated for 24 hrs by DAPI staining based fluorescence microscopic analysis; format: cell-based
[6] = biological target: T1, Tubulin (Homo sapiens); assay: Disruption of microtubule network in human MDA-MB-231 cells assessed as point-like fiber structure at 1 uM incubated for 24 hrs by DAPI staining based fluorescence microscopic analysis; format: cell-based
[7] = biological target: T2, Hexokinase-2 (Homo sapiens) (UniProt P52789); assay: Inhibition of human HK2 transfected in Escherichia coli BL21 (DE) incubated for 10 mins
T2 sequence (whole entry): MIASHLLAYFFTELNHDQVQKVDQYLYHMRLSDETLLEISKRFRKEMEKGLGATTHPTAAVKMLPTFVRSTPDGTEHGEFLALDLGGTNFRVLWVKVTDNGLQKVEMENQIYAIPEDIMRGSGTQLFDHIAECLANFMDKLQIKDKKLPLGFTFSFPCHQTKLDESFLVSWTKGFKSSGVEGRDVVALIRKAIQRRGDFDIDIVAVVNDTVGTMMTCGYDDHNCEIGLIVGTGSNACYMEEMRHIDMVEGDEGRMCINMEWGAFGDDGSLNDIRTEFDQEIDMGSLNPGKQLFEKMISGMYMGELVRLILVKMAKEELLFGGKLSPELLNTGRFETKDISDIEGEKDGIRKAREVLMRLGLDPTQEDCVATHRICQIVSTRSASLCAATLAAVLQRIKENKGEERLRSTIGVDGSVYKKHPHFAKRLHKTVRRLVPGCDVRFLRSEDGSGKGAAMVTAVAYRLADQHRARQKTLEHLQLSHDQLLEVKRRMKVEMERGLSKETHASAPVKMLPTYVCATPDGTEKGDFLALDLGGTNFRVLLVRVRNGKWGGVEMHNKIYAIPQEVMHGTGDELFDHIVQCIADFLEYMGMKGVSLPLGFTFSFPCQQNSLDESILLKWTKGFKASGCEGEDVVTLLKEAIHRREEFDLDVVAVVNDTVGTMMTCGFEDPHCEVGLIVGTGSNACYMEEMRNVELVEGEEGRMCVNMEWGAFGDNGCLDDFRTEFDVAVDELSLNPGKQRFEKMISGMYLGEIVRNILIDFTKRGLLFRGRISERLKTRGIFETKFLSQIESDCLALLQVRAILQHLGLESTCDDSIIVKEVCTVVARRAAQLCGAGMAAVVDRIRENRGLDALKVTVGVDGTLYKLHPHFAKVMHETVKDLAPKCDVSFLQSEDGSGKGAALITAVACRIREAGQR

[8] = biological target: T2, Hexokinase-2 (Homo sapiens); assay: Binding affinity to human HK2 transfected in Escherichia coli BL21 (DE) by pull down assay
[9] = biological target: Tubulin beta (Homo sapiens) (UniProt P68371+Q9H4B7+Q13509+P04350+Q3ZCM7+P07437+Q13885+Q9BVA1+Q9BUF5+A6NNZ2); assay: Binding affinity to beta-tubulin (unknown origin) by pull down assay; format: protein assay

| IC50 [1] [µM] | Activity [2] | Activity [3] | Activity [4] | Activity [5] | Activity [6] | inhibition [7] | Activity [8] | Activity [9] | Structure (SMILES) |
| --- | --- | --- | --- | --- | --- | --- | --- | --- | --- |
| 1.94 | Active | Active | Active | Active | Active | inactive |  |  | COc1ccc(CCc2cc(OC)c(OC)c(OC)c2)cc1O |
|  |  |  |  |  |  |  | Active | Active | O=C1N[C@H]2[C@H](CS[C@H]2CCCCC(=O)N2CCN(c3ccc4c(c3)c(/C=C/C(=O)c3cccnc3)cn4S(=O)(=O)c3ccc([N+](=O)[O-])cc3)CC2)N1 |
